Measurements published in ChEMBL document CHEMBL3600296, “Synthesis and evaluation of pyrrolotriazine based molecules as PI3 kinase inhibitors” (Bioorg Med Chem Lett, 2015).

Key:
Settings in all cases: 2 h
[1] = Metabolic stability in mouse liver microsomes at 10 uM up to 120 mins by HPLC analysis; assay type: ADME
Liver microsome [2] = assay: Metabolic stability in human liver microsomes at 10 uM up to 120 mins by HPLC analysis; assay type: ADME
Liver microsome [3] = assay: Metabolic stability in dog liver microsomes at 10 uM up to 120 mins by HPLC analysis; assay type: ADME, Canis lupus familiaris

Measured: Stability

Nc1ncc(-c2nc(N3CCOCC3)c3cccn3n2)cn1
Stable: [1] | Liver microsome [2] | Liver microsome [3]

c1cc(-c2nc(N3CCOCC3)c3cccn3n2)c2cn[nH]c2c1
Stable: [1] | Liver microsome [2] | Liver microsome [3]

COCc1ccc2c(N3CCOCC3)nc(-c3cnc(N)nc3)nn12
Stable: [1] | Liver microsome [2] | Liver microsome [3]
